This note sets out measurements from patent publication US9605026B2, “Hydrogen-bond surrogate peptides and peptidomimetics for p53 reactivation” (New York University, priority 2013, dated 2017).

In this assay the test system is UMSCC47 cells. Description: Apoptosis (Annexin V FACS) in UMSCC47 cells. Format: cell-based, human. Particulars: UMSCC47, 10 μM, 24 hours, vs vehicle. The method, then: FIG. 6A is a western blot showing total and acetylated p53 levels. UMSCC47 cells were treated with control (vehicle), CH1iB (10 μM), cis-platinum (10 μM), or CH1iB (10 μM) and cis-platinum (10 μM) for 24 hours. Cell lysates were immunoblotted with anti-p53 or anti-acetylated[K382]-p53 antibody. FIG. 6B is a graph of p53 transcriptional activity. UMSCC47 cells were co-transfected with a p53 Firefly luciferase reporter plasmid and a control Renilla luciferase plasmid. After 24 hours, cells were treated with control (vehicle), CH1iB (10 μM), cis-platinum (10 μM), or CH1iB (10 μM) and cis-platinum (10 μM) for 24 hours. Firefly luciferase activity was normalized to Renilla luciferase activity to control for transfection efficiency. […] UMSCC47 cells were treated with control (vehicle), CH1iB (10 μM), cis-platinum (10 μM), or CH1iB (10 μM) and cis-platinum (10 μM) for 24 hours. mRNA expression was determined using qPCR with validated TaqMan assays. […] FACS was used to quantitate Annexin V-positive apoptotic cells (left panel). […] Tumorsphere formation efficiency was calculated as the number of tumorspheres (≧50 μm in diameter) formed in 7 days divided by the original number of cells seeded. Tumorsphere diameter was measured using NIS-Elements software. […]
Cell proliferation was assessed using the MTT reagent (Roche Molecular Biochemicals, Nutley, N.J.) to detect metabolic active cells. […]

As for “XELA*RALDQ-NH2 (ELXRALDQ; HBS: 4-pentenoic acid, N-allylalanine; C-terminal amide; CH1iB) [X 4-pentenoic acid, A* N-allylalanine]”, the enhancement of apoptosis was found to be 353%.
